Results on 21 compounds are retold here after ChEMBL document CHEMBL5291721, “A preclinical secondary pharmacology resource illuminates target-adverse drug reaction associations of marketed drugs” (Nat Commun, 2023).

Where a SMILES comes first, the peptide text is derived from it. [ ]: non-standard residue; d: D form. pGlu = O=C1CC[C@@H](C(=O)O)N1; Thz = O=C(O)[C@@H]1CSCN1

Test [1] deals with T1, Alpha-2B adrenergic receptor (Homo sapiens, UniProt P18089).
T1 sequence (P18089 whole entry): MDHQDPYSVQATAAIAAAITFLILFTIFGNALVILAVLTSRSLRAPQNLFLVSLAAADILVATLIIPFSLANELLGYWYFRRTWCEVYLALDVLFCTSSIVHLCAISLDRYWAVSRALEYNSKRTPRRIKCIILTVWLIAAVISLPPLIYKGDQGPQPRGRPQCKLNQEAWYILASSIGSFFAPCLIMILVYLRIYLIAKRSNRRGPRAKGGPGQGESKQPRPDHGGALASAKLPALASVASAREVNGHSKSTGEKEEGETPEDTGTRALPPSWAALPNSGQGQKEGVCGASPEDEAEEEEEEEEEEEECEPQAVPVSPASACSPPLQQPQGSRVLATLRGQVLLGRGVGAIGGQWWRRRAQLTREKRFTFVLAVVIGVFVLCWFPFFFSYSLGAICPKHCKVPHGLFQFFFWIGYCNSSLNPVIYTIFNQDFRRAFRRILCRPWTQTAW

The target in test [2] is T2, Muscarinic acetylcholine receptor M1 (Homo sapiens, UniProt P11229).
T2 sequence (P11229 whole entry): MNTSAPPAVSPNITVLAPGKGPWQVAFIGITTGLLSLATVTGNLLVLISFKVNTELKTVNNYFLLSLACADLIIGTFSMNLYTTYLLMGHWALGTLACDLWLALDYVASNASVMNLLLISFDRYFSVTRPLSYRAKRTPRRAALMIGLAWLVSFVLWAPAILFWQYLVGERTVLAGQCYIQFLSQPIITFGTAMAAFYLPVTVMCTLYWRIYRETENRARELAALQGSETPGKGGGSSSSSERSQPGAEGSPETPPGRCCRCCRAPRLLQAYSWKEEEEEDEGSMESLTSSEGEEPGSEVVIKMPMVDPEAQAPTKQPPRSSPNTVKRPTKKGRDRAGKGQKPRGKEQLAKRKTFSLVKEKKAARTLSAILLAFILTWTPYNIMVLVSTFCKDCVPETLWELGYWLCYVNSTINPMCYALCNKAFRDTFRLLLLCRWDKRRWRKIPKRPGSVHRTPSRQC
The class given is functional.

Test [3] deals with Muscarinic acetylcholine receptor M3 (Homo sapiens, UniProt P20309).
Chain of Muscarinic acetylcholine receptor M3 (P20309 whole entry): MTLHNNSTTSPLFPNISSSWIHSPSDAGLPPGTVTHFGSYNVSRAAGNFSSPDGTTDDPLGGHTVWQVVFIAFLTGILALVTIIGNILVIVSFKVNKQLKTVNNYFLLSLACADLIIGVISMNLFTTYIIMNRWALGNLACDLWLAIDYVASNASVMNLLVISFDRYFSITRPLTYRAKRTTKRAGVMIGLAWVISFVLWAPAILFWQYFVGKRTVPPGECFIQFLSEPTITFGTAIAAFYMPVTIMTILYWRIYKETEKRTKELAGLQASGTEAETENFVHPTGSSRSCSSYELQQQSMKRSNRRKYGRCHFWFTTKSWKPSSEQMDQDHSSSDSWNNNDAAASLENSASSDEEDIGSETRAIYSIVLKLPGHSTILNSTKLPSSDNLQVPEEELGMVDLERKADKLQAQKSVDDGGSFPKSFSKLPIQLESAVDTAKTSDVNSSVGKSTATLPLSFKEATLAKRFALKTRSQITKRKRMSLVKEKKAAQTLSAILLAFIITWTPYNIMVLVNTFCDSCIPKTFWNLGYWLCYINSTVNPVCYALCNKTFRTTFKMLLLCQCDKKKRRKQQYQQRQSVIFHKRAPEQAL
Test [4] concerns the target T3, Cannabinoid receptor 1 (Homo sapiens, UniProt P21554). The class given is functional, cell-based.
The target of test [5] is T3, Cannabinoid receptor 1. The class given is functional, cell-based. This is another data set of the same source.
Another test deals with T4, Estrogen receptor (Homo sapiens, UniProt P03372).
T4 sequence (P03372 whole entry): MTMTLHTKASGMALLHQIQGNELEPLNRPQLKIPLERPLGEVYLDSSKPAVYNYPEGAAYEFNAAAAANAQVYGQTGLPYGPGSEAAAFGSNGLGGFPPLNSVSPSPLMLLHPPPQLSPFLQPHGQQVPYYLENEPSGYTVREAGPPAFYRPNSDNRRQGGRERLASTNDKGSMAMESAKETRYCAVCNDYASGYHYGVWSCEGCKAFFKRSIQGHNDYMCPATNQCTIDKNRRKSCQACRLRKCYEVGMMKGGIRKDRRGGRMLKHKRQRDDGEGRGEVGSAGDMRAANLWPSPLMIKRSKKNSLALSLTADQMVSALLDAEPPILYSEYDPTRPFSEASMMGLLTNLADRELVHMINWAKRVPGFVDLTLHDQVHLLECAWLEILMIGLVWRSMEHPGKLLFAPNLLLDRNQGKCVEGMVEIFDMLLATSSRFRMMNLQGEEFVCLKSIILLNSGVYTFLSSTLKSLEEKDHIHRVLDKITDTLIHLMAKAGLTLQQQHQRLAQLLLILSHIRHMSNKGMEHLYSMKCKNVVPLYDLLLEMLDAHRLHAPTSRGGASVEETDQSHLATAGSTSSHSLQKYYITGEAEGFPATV

The target of test [6] is 5-hydroxytryptamine receptor 2A (Homo sapiens, UniProt P28223). The class given is functional, cell-based.
Chain of 5-hydroxytryptamine receptor 2A (P28223 whole entry): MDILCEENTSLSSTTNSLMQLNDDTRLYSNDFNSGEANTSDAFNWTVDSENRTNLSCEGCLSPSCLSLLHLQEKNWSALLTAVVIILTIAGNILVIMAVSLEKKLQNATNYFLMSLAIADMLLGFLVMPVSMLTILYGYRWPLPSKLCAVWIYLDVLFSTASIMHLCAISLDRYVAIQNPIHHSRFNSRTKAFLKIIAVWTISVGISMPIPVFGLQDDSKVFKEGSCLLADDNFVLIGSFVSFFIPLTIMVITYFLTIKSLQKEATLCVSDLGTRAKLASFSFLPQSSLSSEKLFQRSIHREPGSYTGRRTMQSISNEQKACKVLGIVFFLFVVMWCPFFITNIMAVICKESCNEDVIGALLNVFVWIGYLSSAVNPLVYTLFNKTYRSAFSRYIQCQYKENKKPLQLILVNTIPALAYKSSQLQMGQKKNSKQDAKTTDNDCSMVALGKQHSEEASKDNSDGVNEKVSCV
The next test concerns the target Melanocortin receptor 4 (Homo sapiens, UniProt P32245).
Also: assay procedure not described here.

Chain of Melanocortin receptor 4 (P32245 whole entry): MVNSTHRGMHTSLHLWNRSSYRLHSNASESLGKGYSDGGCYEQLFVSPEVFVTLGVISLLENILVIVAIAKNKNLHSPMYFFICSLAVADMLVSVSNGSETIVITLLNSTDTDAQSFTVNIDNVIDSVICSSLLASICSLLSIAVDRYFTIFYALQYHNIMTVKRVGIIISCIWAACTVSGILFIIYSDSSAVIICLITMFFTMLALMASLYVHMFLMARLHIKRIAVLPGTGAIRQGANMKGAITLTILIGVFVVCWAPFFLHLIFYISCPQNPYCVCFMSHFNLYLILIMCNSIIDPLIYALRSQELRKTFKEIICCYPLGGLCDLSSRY
T3 sequence (P21554 whole entry): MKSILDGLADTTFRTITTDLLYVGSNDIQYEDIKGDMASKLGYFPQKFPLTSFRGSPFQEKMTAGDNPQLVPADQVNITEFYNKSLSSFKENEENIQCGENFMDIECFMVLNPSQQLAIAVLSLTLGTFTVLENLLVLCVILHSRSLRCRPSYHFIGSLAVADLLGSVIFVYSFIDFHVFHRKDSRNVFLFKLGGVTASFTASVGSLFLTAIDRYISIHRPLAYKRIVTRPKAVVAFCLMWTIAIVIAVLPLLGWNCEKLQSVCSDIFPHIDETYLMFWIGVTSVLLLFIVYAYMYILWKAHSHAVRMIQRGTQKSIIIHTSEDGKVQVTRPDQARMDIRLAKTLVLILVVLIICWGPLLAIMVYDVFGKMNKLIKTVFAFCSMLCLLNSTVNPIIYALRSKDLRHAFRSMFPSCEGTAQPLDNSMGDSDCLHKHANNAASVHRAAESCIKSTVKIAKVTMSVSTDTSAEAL

Regarding `CC(C)N(CCCCOCC(=O)O)c1cnc(-c2ccccc2)c(-c2ccccc2)n1`, the AC50 (in test [1]; in test [2]; in test [3]; at Cannabinoid receptor 1 [4]; on Cannabinoid receptor 1 [5]; on Estrogen receptor) was more than 30 µM each time. In test [6], this compound showed an AC50 of more than 30 µM.

Take `NS(=O)(=O)c1cc2c(cc1Cl)N=C(CSCc1ccccc1)NS2(=O)=O` [BENZTHIAZIDE]: the AC50 in test [1] is 7.4 µM; in test [2], more than 30 µM; in test [3], more than 30 µM; at Estrogen receptor, more than 30 µM; in test [6] it was more than 10 µM; on Melanocortin receptor 4, more than 10 µM.

As for `Clc1ccc(CCC(Cn2ccnc2)Sc2c(Cl)cccc2Cl)cc1` (stereo not given) [BUTOCONAZOLE], the AC50 in test [1] is 19 µM; in test [2], more than 30 µM; in test [3], 21 µM; at Estrogen receptor, 20 µM; in test [6] it was more than 30 µM.

Regarding `CO/N=C(\C(=O)N[C@@H]1C(=O)N2C(C(=O)O)=C(CSc3nc(=O)c(=O)[nH]n3C)CS[C@H]12)c1csc(N)n1` [CEFTRIAXONE], the half-maximal activity concentration (AC50) (in test [1]; in test [2]; in test [3]; on Cannabinoid receptor 1 [4]; at Cannabinoid receptor 1 [5]; at Estrogen receptor) was more than 30 µM each time. In test [6], this compound yielded an AC50 of more than 30 µM.

Consider `CC(C)[C@@H](C)/C=C/[C@@H](C)[C@H]1CC[C@H]2/C(=C/C=C3\C[C@@H](O)CC[C@@H]3C)CCC[C@]12C` [DIHYDROTACHYSTEROL], for which the AC50 is more than 10 µM in test [1]; more than 10 µM in test [2]; more than 30 µM in test [3]; more than 30 µM on Estrogen receptor; more than 10 µM in test [6]; more than 10 µM on Melanocortin receptor 4.

Regarding `Oc1ccc(CCNCCCCCCNCCc2ccccc2)cc1O` [DOPEXAMINE], the AC50 in test [1] is 19 µM; in test [2] it was 14 µM; in test [3] it was more than 30 µM; at Cannabinoid receptor 1 [4] it was more than 30 µM; on Cannabinoid receptor 1 [5], more than 30 µM; at Estrogen receptor, more than 30 µM. The compound also displayed an AC50 in test [6] of more than 30 µM.

Take `CCc1cc2c(s1)-n1c(C)nnc1CN=C2c1ccccc1Cl` [ETIZOLAM]: the AC50 (in test [1]; in test [2]; in test [3]; on Cannabinoid receptor 1 [4]; at Cannabinoid receptor 1 [5]; at Estrogen receptor) was more than 30 µM in each case. Besides, the AC50 in test [6] is more than 30 µM.

On to `CC/C=C\C/C=C\C/C=C\C/C=C\C/C=C\CCCC(=O)OCC` [ICOSAPENT ETHYL], for which the AC50 in test [1] was more than 30 µM; in test [2], more than 30 µM; in test [3], more than 30 µM; on Cannabinoid receptor 1 [4], more than 30 µM; at Cannabinoid receptor 1 [5] it was more than 30 µM; at Estrogen receptor, more than 10 µM. Further, the AC50 in test [6] was more than 30 µM.

In the case of `CCCC(C)(COC(N)=O)COC(N)=O` [MEPROBAMATE], the AC50 in test [1] is more than 10 µM; in test [2], more than 30 µM; in test [3], more than 30 µM; in test [6], more than 10 µM; at Melanocortin receptor 4 it was more than 10 µM.

Consider `O=c1[nH]c2ccccc2n1CCCN1CCN(C(c2ccccc2)c2ccccc2)CC1` [OXATOMIDE], for which the AC50 is more than 30 µM in test [1]; 5.8 µM in test [2]; 3.5 µM in test [3]; more than 30 µM at Cannabinoid receptor 1 [4]; more than 30 µM at Cannabinoid receptor 1 [5]; more than 30 µM in test [6].

Regarding `COc1cc2[nH]c(C)c(CCN3CCN(c4ccccc4)CC3)c2cc1OC` [OXYPERTINE], the AC50 is 0.25 µM in test [1]; more than 30 µM in test [2]; more than 30 µM in test [3]; more than 30 µM at Cannabinoid receptor 1 [4]; more than 30 µM on Cannabinoid receptor 1 [5]; more than 30 µM in test [6].

Consider `OC[C@H]1O[C@@H](Oc2cc(O)cc(/C=C/c3ccc(O)cc3)c2)[C@H](O)[C@@H](O)[C@@H]1O` [PICEID], for which the AC50 (in test [1]; in test [2]; in test [3]; on Cannabinoid receptor 1 [4]; on Cannabinoid receptor 1 [5]; at Estrogen receptor) was more than 30 µM in each case. In addition, the AC50 in test [6] was more than 30 µM.

For `O=C1CC[C@@H](C(=O)N2CSC[C@H]2C(=O)O)N1` [PIDOTIMOD] ([pGlu]-[Thz]-OH), the AC50 (in test [1]; in test [2]; in test [3]; on Cannabinoid receptor 1 [4]; at Cannabinoid receptor 1 [5]; at Estrogen receptor) was more than 30 µM each time. For the same compound, in test [6], the AC50 was more than 30 µM.

For `COc1cc(C(=O)OCc2cccc(COC(=O)c3cc(OC)c(OC)c(OC)c3)n2)cc(OC)c1OC` [PIROZADIL], the half-maximal activity concentration (AC50) (in test [1]; in test [2]; in test [3]; at Cannabinoid receptor 1 [4]; at Cannabinoid receptor 1 [5]; in test [6]) was more than 30 µM in each case.

In the case of `CCC(NC(C)C)C(O)c1ccc(O)c2[nH]c(=O)ccc12` (stereo not given) [PROCATEROL], the AC50 (in test [1]; in test [2]; in test [3]; on Cannabinoid receptor 1 [4]; on Cannabinoid receptor 1 [5]; at Estrogen receptor) was more than 30 µM throughout. This compound came in with a half-maximal activity concentration (AC50) in test [6] of more than 30 µM.

Turning to `CC1=C(/C=C/C(C)=C/C=C/C(C)=C/CO)C(C)(C)CCC1` [RETINOL], the AC50 in test [1] is more than 30 µM; in test [2] it was more than 10 µM; in test [3], more than 30 µM; at Estrogen receptor, more than 30 µM; in test [6], more than 10 µM; on Melanocortin receptor 4, more than 10 µM.

With `CCCN1CCCC[C@H]1C(=O)Nc1c(C)cccc1C` [ROPIVACAINE], the AC50 (in test [1]; in test [2]; in test [3]; on Cannabinoid receptor 1 [4]; at Cannabinoid receptor 1 [5]; in test [6]) was more than 30 µM throughout.

With `CCN1CCCC1CNC(=O)c1cc(S(=O)(=O)CC)ccc1OC` (stereo not given) [SULTOPRIDE], the half-maximal activity concentration (AC50) in test [1] was 10 µM; in test [2], more than 30 µM; in test [3] it was more than 30 µM; on Cannabinoid receptor 1 [4], more than 30 µM; at Cannabinoid receptor 1 [5] it was more than 30 µM; in test [6], more than 30 µM.

In the case of `Cn1c(=O)c2c(ncn2CCOC(=O)C(C)(C)Oc2ccc(Cl)cc2)n(C)c1=O` [THEOFIBRATE], the AC50 (in test [1]; in test [2]; in test [3]; on Cannabinoid receptor 1 [4]; on Cannabinoid receptor 1 [5]; on Estrogen receptor) was more than 30 µM throughout. Moreover, the AC50 in test [6] is more than 30 µM.

As to `CC(C)(C)NCC(O)c1ccccc1Cl` (stereo not given) [TULOBUTEROL], the concentration at half-maximal activity (AC50) (in test [1]; in test [2]; in test [3]; on Cannabinoid receptor 1 [4]; at Cannabinoid receptor 1 [5]; on Estrogen receptor) was more than 30 µM in each case. Moreover, the AC50 in test [6] was more than 30 µM.

In the case of `CC(C(=O)O)c1ccc2c(c1)CC(=O)c1ccccc1S2` (stereo not given) [ZALTOPROFEN], the AC50 (in test [1]; in test [2]; in test [3]; at Cannabinoid receptor 1 [4]; at Cannabinoid receptor 1 [5]; at Estrogen receptor) was more than 30 µM in each case. The AC50 in test [6] is more than 30 µM.
